How the values were obtained:
Set-up in all cases: species or system mouse
Settings in all cases: RIA IC50 value for METH/RIA IC50 value for test ligand
mAb6H8 = test: RIA cross-reactivity profile, inhibition of [3H]-(+)METH binding to mAb6H8
Experimental: (§1) KD values for mAb were determined by the method of Akera and Cheng (1977, Biochim Biophys Acta 470:412-423).

mAb4G9 = test: RIA cross-reactivity profile, inhibition of [3H]-(+)METH binding to mAb4G9
Experimental: as §1

mAb6H4 = test: RIA cross-reactivity profile, inhibition of [3H]-(+)METH binding to mAb6H4
Experimental: as §1

| Compound | Antibody Specificity (Relative Potency to METH), mAb6H8 (mAb6H8) | Antibody Specificity (Relative Potency to METH), mAb4G9 (mAb4G9) | Antibody Specificity (Relative Potency to METH), mAb6H4 (mAb6H4) |
| --- | --- | --- | --- |
| NC[C@H](O)c1ccc(O)c(O)c1 [norepinepherine] | <0.001 | <0.001 | <0.001 |
| (−)-methamphetamine [(−)METH] | 0.011 | 0.102 | 0.030 |
| NCCc1ccc(O)cc1 [tyramine] | <0.001 | <0.001 | <0.001 |
| CNC[C@H](O)c1cccc(O)c1 [l-phenylphrine] | <0.001 | <0.001 | 0.001 |
| CN[C@H](C)[C@@H](O)c1ccccc1 [(+)ephedrine] | <0.001 | <0.001 | <0.001 |
| (+)norpseudoephedrine | <0.001 | <0.001 | <0.001 |
| CNC(C)Cc1ccc2c(c1)OCO2 (single isomer, unassigned; (+)) [(+)MDMA, (+)-3,4-methylenedioxymethamphetamine] | 3.40 | 0.29 | 1.25 |
| CC(N)Cc1ccccc1 (single isomer, unassigned; (-)) [(−)AMP, (−)amphetamine] | 0.003 | 0.063 | <0.001 |
| NCCc1c[nH]c2ccc(O)cc12 [serotonin] | <0.001 | <0.001 | <0.001 |
| CNC(C)Cc1ccc2c(c1)OCO2 (single isomer, unassigned; (-)) [(−)MDMA] | 0.018 | 0.011 | 0.007 |
| CNC(C)Cc1ccc(O)cc1 (stereo not drawn) [4-OH-METH] | 0.294 | 0.106 | 0.588 |
| (+)pseudoephedrine | 0.018 | 0.004 | <0.001 |
| CC(N)Cc1ccccc1 (single isomer, unassigned; (+)) [(+)AMP, (+)-amphetamine] | 0.023 | 0.34 | 0.001 |
| NCCc1ccccc1 [β-phenylethylamine] | <0.001 | 0.001 | <0.001 |
| CNC[C@H](O)c1ccc(O)c(O)c1 [epinephrine] | <0.001 | <0.001 | <0.001 |
| CC(N)Cc1ccc2c(c1)OCO2 (single isomer, unassigned; (-)) [(−)MDA] | <0.001 | 0.002 | <0.001 |
| CC(N)C(O)c1ccccc1 (single isomer, unassigned; (+)) [(+)phenylpropanolamine] | <0.001 | <0.001 | <0.001 |
| CC(N)Cc1ccc2c(c1)OCO2 (single isomer, unassigned; (+)) [(+)MDA] | 0.024 | 0.090 | 0.001 |
| NCCc1ccc(O)c(O)c1 [dopamine] | <0.001 | <0.001 | <0.001 |
